Measurements as given in US5276170A, “Azido-substituted aromatic amino acids” (The United States of America as represented by the …, priority 1992, dated 1994).
Read-outs that look alike come from different tables or passages of the source.

Legend:
PC12 cells [1] = assay: Effect on PC12 cell growth ([3H]thymidine and [3H]leucine incorporation over 5 days); format: cell-based; conditions: presence and absence of NGF
Procedure: Cell growth was estimated both visually and by the incorporation of [^3 H]thymidine and [^3 H]leucine over a period of 5 days in the presence and absence of nerve growth factor, 50 nanogm/well (NGF-7S was obtained from Boehringer Mannheim Biochemicals, Indianapolis, Ind.; labeled amino acids and thymidine were obtained from New England Nuclear, Boston, Mass.). On day one, compound 1 was added in concentrations ranging from 0.005 to 1.5 mM. Less than 10% inhibition in isotope-incorporation was observed between control and cultures over the five day period.

[2] = tested on: mushroom tyrosinase (sigma); assay: Mushroom tyrosinase oxidation (UV/visible spectra; dopaquinone production at 480 nm); format: biochemical
Excerpt: Thus, compound 1 is apparently able to bind strongly to mushroom tyrosinase.

PC12 cells [3] = assay: Incorporation of tyrosine, leucine and thymidine into PC12 cells; format: cell-based; conditions: for inhibition at 1000 µM: Rattus norvegicus
Procedure: The incorporation (2 μCi/well) of [^14 CU]tyrosine, [^3 H]thymidine were measured in the presence and absence of 2-azidotyrosine (1.0 mM) over a period of 72 hours. PC12 cells were grown as monolayers in 150 cm^2 tissue culture flasks at 37° C. in 6% CO2 in Dulbecco's modified Eagle's medium supplemented with 7% fetal bovine serum, 7% horse serum, and 100 μg streptomycin and 100 units of penicillin per ml. The cells were split after 3 days and aliquots (2 ml) transferred to 6 well culture plates. 2-Azidotyrosine (final concentration, 1 mM), [^14 CU] tyrosine (2 μCi/well), [^3 H]leucine (2 μCi/well), and [^3 H]thymidine (2 μCi/well) were added in 0.5 ml solutions in cell media. The final volume of each well was adjusted to 3.0 ml. The cultures were incubated in the dark at 37° C. in 6% CO2 for 12, 24, 48 and 72 hrs. Cells were removed and transferred to conical tubes (10 ml), sedimented by centrifugation, and washed 3X with phosphate buffered saline, pH 7.2. The cell sediment was dissolved in 0.5 ml of a solution of 0.5N NAOH containing 1% SDS over a period of 30 min., neutralized with 0.5 ml 0.5N HCl, and the isotope content measured by scintillation spectrometry. The results are expressed at the mean±SEM for 3 wells for each set of conditions.

tyrosine phenol-lyase = tyrosine phenol-lyase (Citrobacter freundii, UniProt P31013); assay: Tyrosine phenol-lyase catalyzed hydrolytic cleavage to ammonium pyruvate and 3-azidophenol; format: biochemical; conditions: as substrate; % of Vmax of L-tyrosine
Chain of tyrosine phenol-lyase (P31013 whole entry, species assumed): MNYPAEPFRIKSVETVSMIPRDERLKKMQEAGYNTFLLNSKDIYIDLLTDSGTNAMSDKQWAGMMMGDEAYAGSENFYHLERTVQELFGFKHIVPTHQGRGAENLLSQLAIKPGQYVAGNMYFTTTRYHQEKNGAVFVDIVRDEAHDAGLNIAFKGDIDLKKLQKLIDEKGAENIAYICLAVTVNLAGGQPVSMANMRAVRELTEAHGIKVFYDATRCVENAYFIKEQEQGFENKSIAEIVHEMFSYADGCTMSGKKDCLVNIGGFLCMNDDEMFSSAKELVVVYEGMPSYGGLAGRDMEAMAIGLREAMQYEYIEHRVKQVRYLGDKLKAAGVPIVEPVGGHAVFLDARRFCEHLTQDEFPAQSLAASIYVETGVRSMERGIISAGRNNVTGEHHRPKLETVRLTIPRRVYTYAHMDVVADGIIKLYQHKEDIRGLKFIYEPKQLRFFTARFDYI

[N-]=[N+]=Nc1cc(O)ccc1C[C@H](N)C(=O)O [compound 1, 2-azido-L-tyrosine]
inhibition in isotope-incorporation (PC12 cells [1]; 0.005 to 1.5 mM, [3H]thymidine and [3H]leucine, five day period): Less than 10% | growth of PC12 cells (PC12 cells [1]; maximum concentration 1.5 mM, 5 days): did not significantly inhibit | lag period before oxidation of L-tyrosine ([2]; 0.1 mM, equimolar L-tyrosine, dopaquinone at 480 nm): much longer lag periods | hydroxylation by mushroom tyrosinase ([2]; extensive incubation, UV and visible absorption spectra): not hydroxylated | binding to mushroom tyrosinase ([2]; inferred from lag period): bind strongly | incorporation of [3H]leucine (PC12 cells [3]; 1.0 mM, up to 72 hrs): not significantly different from control | inhibition at 1000 µM (PC12 cells [3]; PC-12, 1.0 mM, 24 hours, read-out: inhibition of [3H]thymidine incorporation): 34% | inhibition at 1000 µM (PC12 cells [3]; PC-12, 1.0 mM, 72 hours, read-out: inhibition of [3H]thymidine incorporation): 24% | inhibition at 1000 µM (PC12 cells [3]; PC-12, 24 h, 1.0 mM, 24 hrs, compared to untreated controls, read-out: inhibition of [14CU]tyrosine incorporation): ~58% | inhibition at 1000 µM (PC12 cells [3]; PC-12, 72 h, 1.0 mM, 72 hrs, compared to untreated controls, read-out: inhibition of [14CU]tyrosine incorporation): ~38% | Vmax (relative to that of L-tyrosine) (tyrosine phenol-lyase): 18%
